From publication PMC4498954 (Inorganic chemistry, 2010)

Target: methemoglobin (metHb, human hemoglobin, Fe(III) form) (Homo sapiens, UniProt P68871+P69905)
Sequence (P69905 2-142): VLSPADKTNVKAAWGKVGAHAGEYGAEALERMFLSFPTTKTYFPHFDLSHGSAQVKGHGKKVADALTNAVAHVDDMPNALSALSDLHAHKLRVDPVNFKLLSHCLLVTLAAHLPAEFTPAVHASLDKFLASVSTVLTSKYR
Sequence (P68871 2-147): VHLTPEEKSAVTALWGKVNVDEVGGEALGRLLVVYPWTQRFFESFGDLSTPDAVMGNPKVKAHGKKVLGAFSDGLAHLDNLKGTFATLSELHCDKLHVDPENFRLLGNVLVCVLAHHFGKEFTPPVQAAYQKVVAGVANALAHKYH

SMILES: O=NO [nitrite]
- Kd: 1240 ± 500 µM
